In patent publication US20240034723A1, “PIPERIDINYL SMALL MOLECULE DEGRADERS OF HELIOS AND METHODS OF USE” (DANA-FARBER CANCER INSTITUTE, INC., priority 2020, published 2024):

target: T1, IKZF2 (Helios) (Homo sapiens, UniProt Q96SW2+Q9UKS7); test: MOLT4 IKZF2 HiBit assay protocol (Example 64); type: cell-based; details: MOLT4 IKZF2 HiBit cells, 10-point 30 μM to 1 nM; table title: after 6 hours of treatment (method: incubated 24 hours)
T1 construct: CRISPR/Cas-mediated insertion of the HiBiT peptide tag (Promega™) to the N-terminus of the IKZF2 gene locus; endogenous in cells; host or cells: MOLT4 cells, CRISPR/Cas knock-in of HiBiT at the endogenous IKZF2 locus
T1 sequence (Q9UKS7 whole entry): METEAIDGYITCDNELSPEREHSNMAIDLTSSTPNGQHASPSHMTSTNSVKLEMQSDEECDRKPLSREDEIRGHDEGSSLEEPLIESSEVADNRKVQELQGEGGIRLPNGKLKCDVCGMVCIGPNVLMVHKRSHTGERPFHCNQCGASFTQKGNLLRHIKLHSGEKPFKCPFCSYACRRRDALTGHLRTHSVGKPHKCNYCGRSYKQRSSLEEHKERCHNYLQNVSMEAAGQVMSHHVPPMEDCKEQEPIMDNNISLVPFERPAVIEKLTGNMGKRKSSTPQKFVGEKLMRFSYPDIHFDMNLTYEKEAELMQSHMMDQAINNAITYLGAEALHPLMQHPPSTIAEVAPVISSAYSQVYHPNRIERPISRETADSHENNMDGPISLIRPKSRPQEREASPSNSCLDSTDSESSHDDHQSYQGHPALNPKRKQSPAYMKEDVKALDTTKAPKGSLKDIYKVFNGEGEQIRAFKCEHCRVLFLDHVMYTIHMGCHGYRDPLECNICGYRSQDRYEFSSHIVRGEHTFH
T1 sequence (Q96SW2 whole entry): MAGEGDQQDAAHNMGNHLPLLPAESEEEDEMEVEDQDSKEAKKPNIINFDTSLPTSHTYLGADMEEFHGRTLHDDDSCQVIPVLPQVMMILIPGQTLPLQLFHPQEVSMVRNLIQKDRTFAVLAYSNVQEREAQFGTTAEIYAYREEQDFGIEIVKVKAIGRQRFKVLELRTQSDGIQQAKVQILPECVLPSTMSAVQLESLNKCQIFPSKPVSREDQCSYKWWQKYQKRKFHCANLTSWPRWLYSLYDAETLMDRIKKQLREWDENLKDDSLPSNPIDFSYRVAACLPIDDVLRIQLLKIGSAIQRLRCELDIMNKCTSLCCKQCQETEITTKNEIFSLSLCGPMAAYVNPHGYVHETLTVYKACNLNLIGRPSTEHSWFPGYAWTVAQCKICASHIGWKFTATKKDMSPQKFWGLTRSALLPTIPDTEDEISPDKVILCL
T1 sequence (Q16531 whole entry partner): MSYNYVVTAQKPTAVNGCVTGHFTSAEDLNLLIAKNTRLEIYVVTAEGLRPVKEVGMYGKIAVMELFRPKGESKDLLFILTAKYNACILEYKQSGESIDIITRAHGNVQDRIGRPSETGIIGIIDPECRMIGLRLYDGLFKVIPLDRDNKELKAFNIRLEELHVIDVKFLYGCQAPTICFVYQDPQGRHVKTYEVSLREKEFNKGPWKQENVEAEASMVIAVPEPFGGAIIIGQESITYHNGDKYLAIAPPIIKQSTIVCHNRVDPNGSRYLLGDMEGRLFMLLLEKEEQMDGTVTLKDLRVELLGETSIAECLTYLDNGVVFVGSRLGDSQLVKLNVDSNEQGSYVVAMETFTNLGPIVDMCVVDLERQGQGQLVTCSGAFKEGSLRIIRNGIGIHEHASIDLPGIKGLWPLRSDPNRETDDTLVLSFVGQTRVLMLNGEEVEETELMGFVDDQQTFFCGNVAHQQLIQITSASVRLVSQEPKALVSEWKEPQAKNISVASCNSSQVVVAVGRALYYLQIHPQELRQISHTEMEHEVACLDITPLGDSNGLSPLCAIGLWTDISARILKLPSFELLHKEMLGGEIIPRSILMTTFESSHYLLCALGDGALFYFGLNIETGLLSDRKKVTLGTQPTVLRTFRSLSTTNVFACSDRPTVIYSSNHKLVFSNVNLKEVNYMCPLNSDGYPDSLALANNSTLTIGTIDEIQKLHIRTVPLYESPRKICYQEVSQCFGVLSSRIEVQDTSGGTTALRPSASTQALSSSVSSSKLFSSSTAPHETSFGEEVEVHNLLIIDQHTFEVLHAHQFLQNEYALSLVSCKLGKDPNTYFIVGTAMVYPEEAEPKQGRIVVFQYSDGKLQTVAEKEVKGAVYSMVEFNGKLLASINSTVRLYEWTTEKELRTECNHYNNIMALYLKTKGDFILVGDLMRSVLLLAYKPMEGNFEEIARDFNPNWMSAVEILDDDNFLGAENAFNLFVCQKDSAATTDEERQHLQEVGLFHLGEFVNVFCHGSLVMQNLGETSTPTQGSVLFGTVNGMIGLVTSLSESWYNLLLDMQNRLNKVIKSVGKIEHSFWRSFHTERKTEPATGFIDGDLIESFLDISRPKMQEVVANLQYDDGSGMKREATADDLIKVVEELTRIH
Protocol: This protocol uses MOLT4 cells that were engineered using CRISPR/Cas9-mediated genomic insertion of HiBit, tagged to the N terminus of the IKZF2 coding sequence. Day 1. Created a 10-point dose response starting from 30 μM down to 1 nM using a Tecan D300e. Next added 8,000 cells/well of the MOLT4 IKZF2 HiBit cells to the compound plate. […] Day 2. Added Nano-Glo® HiBit Lytic Buffer/Nano-Glo® HiBit Lytic substrate/LgBit Protein mix to each well and incubated for 15 minutes. Finally, read luminescence signal using a BMG Labtech PHERAstar® FSX. Data was normalized to DMSO and graphed using GraphPad Prism to determine the concentration points at which 50% of HiBiT-Helios degradation was achieved by each compound. The extent of degradation (range of luminescence) from the highest to lowest concentration points was calculated to determine Dmax.

DC50 [nM]	IKZF2 DC50 (M)	SMILES
5 to 25		O=C1CCC(N2Cc3cc(C4CCN(Cc5ccc6ncn(-c7cccc(F)c7)c(=O)c6c5)CC4)ccc3C2=O)C(=O)N1 (stereo not drawn) [Compound 28, 3-(5-(1-((3-(3-fluorophenyl)-4-oxo-3,4-dihydroquinazolin-6-yl)methyl)piperidin-4-yl)-1-oxoisoindolin-2-yl)piperidine-2,6-dione]
< 5		O=C1CCC(N2Cc3cc(C4CCN(Cc5ccc6nc(-c7ccccc7)cn6c5)CC4)ccc3C2=O)C(=O)N1 (stereo not drawn) [Compound 54, 3-(1-oxo-5-(1-((2-phenylimidazo[1,2-a]pyridin-6-yl)methyl)piperidin-4-yl)isoindolin-2-yl)piperidine-2,6-dione]
25 to 100		O=C1CCC(N2Cc3cc(C4CCN(Cc5ccc6nc(-c7ccccc7)nn6c5)CC4)ccc3C2=O)C(=O)N1 (stereo not drawn) [Compound 55, 3-(1-oxo-5-(1-((2-phenyl-[1,2,4]triazolo[1,5-a]pyridin-6-yl)methyl)piperidin-4-yl)isoindolin-2-yl)piperidine-2,6-dione]
5 to 25		O=C1CCC(N2Cc3cc(C4CCN(Cc5ccc6ncn(-c7cccc(C(F)(F)F)c7)c(=O)c6c5)CC4)ccc3C2=O)C(=O)N1 (stereo not drawn) [Compound 60, 3-(1-oxo-5-(1-((4-oxo-3-(3-(trifluoromethyl)phenyl)-3,4-dihydroquinazolin-6-yl)methyl)piperidin-4-yl)isoindolin-2-yl)piperidine-2,6-dione]
5 to 25		N#Cc1cccc(-n2cnc3ccc(CN4CCC(c5ccc6c(c5)CN(C5CCC(=O)NC5=O)C6=O)CC4)cc3c2=O)c1 (stereo not drawn) [Compound 61, 3-(6-((4-(2-(2,6-dioxopiperidin-3-yl)-1-oxoisoindolin-5-yl)piperidin-1-yl)methyl)-4-oxoquinazolin-3(4H)-yl)benzonitrile]
5 to 25		Cc1cccc(-n2cnc3ccc(CN4CCC(c5ccc6c(c5)CN(C5CCC(=O)NC5=O)C6=O)CC4)cc3c2=O)n1 (stereo not drawn) [Compound 62, 3-(5-(1-((3-(6-methylpyridin-2-yl)-4-oxo-3,4-dihydroquinazolin-6-yl)methyl)piperidin-4-yl)-1-oxoisoindolin-2-yl)piperidine-2,6-dione]
5 to 25		CC(C)c1cccc(-n2cnc3ccc(CN4CCC(c5ccc6c(c5)CN(C5CCC(=O)NC5=O)C6=O)CC4)cc3c2=O)n1 (stereo not drawn) [Compound 63, 3-(5-(1-((3-(6-isopropylpyridin-2-yl)-4-oxo-3,4-dihydroquinazolin-6-yl)methyl)piperidin-4-yl)-1-oxoisoindolin-2-yl)piperidine-2,6-dione]
5 to 25		O=C1CCC(N2Cc3cc(C4CCN(Cc5ccc6ncn(-c7cccc(C(F)(F)F)n7)c(=O)c6c5)CC4)ccc3C2=O)C(=O)N1 (stereo not drawn) [Compound 64, 3-(1-oxo-5-(1-((4-oxo-3-(6-(trifluoromethyl)pyridin-2-yl)-3,4-dihydroquinazolin-6-yl)methyl)piperidin-4-yl)isoindolin-2-yl)piperidine-2,6-dione]
5 to 25		COc1cccc(-n2cnc3ccc(CN4CCC(c5ccc6c(c5)CN(C5CCC(=O)NC5=O)C6=O)CC4)cc3c2=O)n1 (stereo not drawn) [Compound 65, 3-(5-(1-((3-(6-methoxypyridin-2-yl)-4-oxo-3,4-dihydroquinazolin-6-yl)methyl)piperidin-4-yl)-1-oxoisoindolin-2-yl)piperidine-2,6-dione]
5 to 25		O=C1CCC(N2Cc3cc(C4CCN(Cc5ccc6ncn(-c7cccnc7)c(=O)c6c5)CC4)ccc3C2=O)C(=O)N1 (stereo not drawn) [Compound 67, 3-(1-oxo-5-(1-((4-oxo-3-(pyridin-3-yl)-3,4-dihydroquinazolin-6-yl)methyl)piperidin-4-yl)isoindolin-2-yl)piperidine-2,6-dione]
< 5		Cc1ncccc1-n1cnc2ccc(CN3CCC(c4ccc5c(c4)CN(C4CCC(=O)NC4=O)C5=O)CC3)cc2c1=O (stereo not drawn) [Compound 68, 3-(5-(1-((3-(2-methylpyridin-3-yl)-4-oxo-3,4-dihydroquinazolin-6-yl)methyl)piperidin-4-yl)-1-oxoisoindolin-2-yl)piperidine-2,6-dione]
	+ +	Cc1ccc(-n2cnc3ccc(CN4CCC(c5ccc6c(c5)CN(C5CCC(=O)NC5=O)C6=O)CC4)cc3c2=O)cn1 (stereo not drawn) [Compound 69, 3-(5-(1-((3-(6-methylpyridin-3-yl)-4-oxo-3,4-dihydroquinazolin-6-yl)methyl)piperidin-4-yl)-1-oxoisoindolin-2-yl)piperidine-2,6-dione]
25 to 100		O=C1CCC(N2Cc3cc(C4CCN(Cc5ccc6ncn(-c7cncc(F)c7)c(=O)c6c5)CC4)ccc3C2=O)C(=O)N1 (stereo not drawn) [Compound 75, 3-(5-(1-((3-(5-fluoropyridin-3-yl)-4-oxo-3,4-dihydroquinazolin-6-yl)methyl)piperidin-4-yl)-1-oxoisoindolin-2-yl)piperidine-2,6-dione]
5 to 25		Cn1cc(-n2cnc3ccc(CN4CCC(c5ccc6c(c5)CN(C5CCC(=O)NC5=O)C6=O)CC4)cc3c2=O)cn1 (stereo not drawn) [Compound 82, 3-(5-(1-((3-(1-methyl-1H-pyrazol-4-yl)-4-oxo-3,4-dihydroquinazolin-6-yl)methyl)piperidin-4-yl)-1-oxoisoindolin-2-yl)piperidine-2,6-dione]
< 5		Cc1nc2ccc(CN3CCC(c4ccc5c(c4)CN(C4CCC(=O)NC4=O)C5=O)CC3)cc2c(=O)n1-c1ccccc1 (stereo not drawn) [Compound 83, 3-(5-(1-((2-methyl-4-oxo-3-phenyl-3,4-dihydroquinazolin-6-yl)methyl)piperidin-4-yl)-1-oxoisoindolin-2-yl)piperidine-2,6-dione]
< 5		Cc1nc2ccc(CN3CCC(c4ccc5c(c4)CN(C4CCC(=O)NC4=O)C5=O)CC3)cc2c(=O)n1-c1ccccn1 (stereo not drawn) [Compound 84, 3-(5-(1-((2-methyl-4-oxo-3-(pyridin-2-yl)-3,4-dihydroquinazolin-6-yl)methyl)piperidin-4-yl)-1-oxoisoindolin-2-yl)piperidine-2,6-dione]
25 to 100		O=C1CCC(N2Cc3c(ccc(C4CCN(Cc5ccc6ncn(-c7ccccn7)c(=O)c6c5)CC4)c3F)C2=O)C(=O)N1 (stereo not drawn) [Compound 85, 3-(4-fluoro-1-oxo-5-(1-((4-oxo-3-(pyridin-2-yl)-3,4-dihydroquinazolin-6-yl)methyl)piperidin-4-yl)isoindolin-2-yl)piperidine-2,6-dione]
< 5		O=C1CCC(N2Cc3cc(C4CCN(Cc5cc6c(=O)n(-c7ccccn7)cnc6cc5F)CC4)ccc3C2=O)C(=O)N1 (stereo not drawn) [Compound 87, 3-(5-(1-((7-fluoro-4-oxo-3-(pyridin-2-yl)-3,4-dihydroquinazolin-6-yl)methyl)piperidin-4-yl)-1-oxoisoindolin-2-yl)piperidine-2,6-dione]
5 to 25		O=C1CCC(N2Cc3c(ccc(C4CCN(Cc5ccc6ncn(-c7cccnc7)c(=O)c6c5)CC4)c3F)C2=O)C(=O)N1 (stereo not drawn) [Compound 89, 3-(4-fluoro-1-oxo-5-(1-((4-oxo-3-(pyridin-3-yl)-3,4-dihydroquinazolin-6-yl)methyl)piperidin-4-yl)isoindolin-2-yl)piperidine-2,6-dione]
5 to 25		O=C1CCC(N2Cc3cc(C4CCN(Cc5ccc6cc(-c7ccccn7)nn6c5)CC4)ccc3C2=O)C(=O)N1 (stereo not drawn) [Compound 92, 3-(1-oxo-5-(1-((2-(pyridin-2-yl)pyrazolo[1,5-a]pyridin-6-yl)methyl)piperidin-4-yl)isoindolin-2-yl)piperidine-2,6-dione]
25 to 100		O=C1CCC(N2Cc3cc(C4CCN(Cc5cn6cc(-c7ccccc7)ccc6n5)CC4)ccc3C2=O)C(=O)N1 (stereo not drawn) [Compound 96, 3-(1-oxo-5-(1-((6-phenylimidazo[1,2-a]pyridin-2-yl)methyl)piperidin-4-yl)isoindolin-2-yl)piperidine-2,6-dione]
25 to 100		O=C1CCC(N2Cc3cc(C4CCN(Cc5cn6cc(-c7cccnc7)ccc6n5)CC4)ccc3C2=O)C(=O)N1 (stereo not drawn) [Compound 97, 3-(1-oxo-5-(1-((6-(pyridin-3-yl)imidazo[1,2-a]pyridin-2-yl)methyl)piperidin-4-yl)isoindolin-2-yl)piperidine-2,6-dione]
25 to 100		O=C1CCC(N2Cc3cc(C4CCN(Cc5cn6ccc(-c7ccccc7)cc6n5)CC4)ccc3C2=O)C(=O)N1 (stereo not drawn) [Compound 98, 3-(1-oxo-5-(1-((7-phenylimidazo[1,2-a]pyridin-2-yl)methyl)piperidin-4-yl)isoindolin-2-yl)piperidine-2,6-dione]
25 to 100		O=C1CCC(N2Cc3cc(C4CCN(Cc5cn6ccc(-c7cccnc7)cc6n5)CC4)ccc3C2=O)C(=O)N1 (stereo not drawn) [Compound 99, 3-(1-oxo-5-(1-((7-(pyridin-3-yl)imidazo[1,2-a]pyridin-2-yl)methyl)piperidin-4-yl)isoindolin-2-yl)piperidine-2,6-dione]
